# Experimental data reported in patent US20140243243A1, “DEVICE AND METHOD FOR CELL-EXCLUSION PATTERNING” (Corning Incorporated, priority 2012, published 2014).
# Tested on: cells growing in a cell-exclusion patterned cell culture
# Assay: Cell-exclusion patterned cell culture in the presence and absence of a drug (cell proliferation and migration)
# Type: cell-based
# Details: uncoated well bottoms; micrographs pretreatment (t=0 h), after 14 h and 40 h of treatment; FIG. 11
# Experimental: Cell-exclusion patterning was carried out by a sequence of steps, as illustrated in FIG. 3. In Step A, complete medium was added to wells of a microtiter plate. The volume added was approximately 30 ul for 384-well plates or 75 ul for 96-well plates. In step B, a comb having guide pins and blocking pins was lowered into the microtiter plate and the blocking pins were locked into the desired wells and the guide pins into the corresponding guide holes. In step C, cells were introduced into the wells of the microtiter plate by adding a solution containing cells to the walls of the wells. The volume of the cell solution was approximately 20 ul for 384-well plates or 25-50 ul for 96-well plates. The cell density was 8000 cells per well and 30,000 cells per well for 384- and 96-well plates, respectively. In step D, the cells were allowed to settle and adhere to the well bottom inside a cell culture hood for about 45 min. The microplates were then placed inside a humidified incubator at 37° C. and 5% CO2 for 3-4 h to allow the cells to attach to the well bottom. In step E, the comb and the pins were removed from the wells. Drugs were then added, if necessary to carry out an assay.
# Cell patterns were imaged by bright-field or fluorescent microscopy or by using Corning Epic® label-free high-resolution optical resonance detection system (available from Corning Incorporated, Corning, N.Y.). […]
smiles,measurement,value
"C=C1[C@@H](C)[C@H]2[C@H](Cc3ccccc3)NC(=O)[C@]23[C@H](OC(C)=O)/C=C/[C@@](C)(O)C(=O)[C@@H](C)C/C=C/[C@H]3[C@@H]1O [CytoD, Cytochalasin D]",growth of cells into the cell exclusion area over time,cells do not grow into the cell exclusion area over time
